Experimental data from patent US20250332178A1, “METHODS OF TREATING MYCOBACTERIAL INFECTIONS USING TETRACYCLINE COMPOUNDS” (priority 2018, published 2025).
Values after ≈ are worked out from the molar mass of the structure shown.

How the values were obtained:
M. simiae = assay: MIC (CLSI broth dilution), slow-growing NTM isolates; assay type: cell-based
M. abscessus = conditions: strains of M. abscessus; Wallace et al.; cited from earlier work
[1] = system: slow-growing NTM isolates; assay: MIC (CLSI broth dilution), all slow-growing NTM isolates; assay type: cell-based, nontuberculous mycobacteria; conditions: all slow-growing NTM isolates
M. chimaera = assay: MIC (CLSI broth dilution), slow-growing NTM isolates; assay type: cell-based
M. avium = assay: as above; assay type: cell-based
[2] = system: Bacille Calmette Guerin (BCG); assay type: cell-based, Mycobacterium bovis; conditions: disk: 15 μg of clarithromycin
[3] = system: M. abscessus subsp. abscessus CIP 104536; assay: MIC according to CLSI guidelines; conditions: Mycobacteroides abscessus, CIP104536, read-out: Minimal Inhibitory Concentration (MIC)
Method: Vials with M. abscessus suspensions were stored at −80° C. Cultures on solid medium were grown on Mueller Hinton II agar (BD), supplemented with 10% OADC and 0.5% glycerol for 10 days at 37° C. with 5% CO2.

[4] = Intra-pulmonary steady-state concentrations (plasma, ELF, alveolar cells) after multiple IV doses in healthy adult subjects; assay type: in vivo, human; conditions: model-computed
Method: The remaining 20 subjects received tigecycline as 1 intravenous dose of 100 mg administered as a 30 minute infusion at t=0, followed by 6 intravenous doses of 50 mg administered as 30 minute infusions at t=12, 24, 36, 48, 60, and 72 hours. A study completion visit was conducted on the day following the final test article dose. There was a final follow-up assessment 7 to 14 days following the subject's last dose of test article which may be completed by telephone contact or other interactive technology unless an examination was needed to evaluate adverse events or abnormalities noted at the study completion visit.
Plasma PK samples were collected pre-dose and at 0.5, 1, 1.5, 2, 3, 4, 6, 8, 12 and 24 hours post-dose on day 4. […] One BAL sample was collected from each subject on day 4. Subjects were randomized to one of the following collection times: 0.5, 1, 2, 4, 8, 12 or 24 hours post-dose.

[5] = MIC by broth microdilution in CAMHB, clinical isolates; assay type: cell-based, Mycobacterium chelonae
[6] = system: M. abscessus subsp. abscessus CIP 104536; assay: Time-kill kinetics assay; assay type: cell-based
Method: Briefly, M. abscessus cultures were exposed to antimicrobial drugs at 4-fold increasing concentrations for 7 days at 37° C. under shaking conditions at 96 rpm. […] The drug concentrations ranged from 0.063 to 256 mg/L for both compounds. […] At day 1, 3 and 7 during drug exposure, samples were collected, centrifuged at 14000 xg to avoid anti-NTM drug carry over, serially diluted (10-fold, 10^0-10^7) and subcultured onto solid medium. […] The lower limit of detection was 5 cfu/mL (log 0.7). All experiments were performed in duplicate. Time-kill curves, as well as concentration-effect curves were generated.

Which results are given for `C[C@H]1c2cccc(O)c2C(=O)C2=C(O)[C@]3(O)C(=O)C(C(N)=O)=C(O)[C@@H](N(C)C)[C@@H]3[C@@H](O)[C@@H]21` [Doxycycline, doxycycline]?
MIC (M. simiae; isolate 13, Other): >16 µg/mL; MIC (M. simiae; isolate 14, Other): >16 µg/mL; MIC (M. simiae; isolate 15, Other): >16 µg/mL; in vitro activity (in words) (M. abscessus): very low activity

With `NCC[C@H](O)C(=O)N[C@@H]1C[C@H](N)[C@@H](O[C@H]2O[C@H](CN)[C@@H](O)[C@H](O)[C@H]2O)[C@H](O)[C@H]1O[C@H]1O[C@H](CO)[C@@H](O)[C@H](N)[C@H]1O` [Amikacin, amikacin] as the compound, how does the MIC50 [1] read?
The MIC50 was 16 µg/mL (≈ 27.3 µM).

What about the MIC90 [1] of the same compound?
The MIC90 was 32 µg/mL (≈ 54.6 µM).

What about the MIC (M. simiae; isolate 13, Other) of the same compound?
The MIC was 32 µg/mL (≈ 54.6 µM).

And the MIC (M. simiae; isolate 14, Other)?
Its MIC is 16 µg/mL (≈ 27.3 µM).

What about the MIC (M. simiae; isolate 15, Other) of the same compound?
Its MIC is 16 µg/mL (≈ 27.3 µM).

And the MIC (M. chimaera; isolate 4, MAC)?
Its MIC is 8 µg/mL (≈ 13.7 µM).

And the MIC (M. chimaera; isolate 5, MAC)?
The MIC was 8 µg/mL (≈ 13.7 µM).

And the MIC (M. avium; isolate 1, MAC)?
Its MIC is 32 µg/mL (≈ 54.6 µM).

What about the MIC (M. avium; isolate 2, MAC) of the same compound?
The MIC was 16 µg/mL (≈ 27.3 µM).

What about the MIC (M. avium; isolate 3, MAC) of the same compound?
Its MIC is 8 µg/mL (≈ 13.7 µM).

With `CC[C@H]1OC(=O)[C@H](C)[C@@H](O[C@H]2C[C@@](C)(OC)[C@@H](O)[C@H](C)O2)[C@H](C)[C@@H](O[C@@H]2O[C@H](C)C[C@H](N(C)C)[C@H]2O)[C@](C)(OC)C[C@@H](C)C(=O)[C@H](C)[C@@H](O)[C@]1(C)O` [clarithromycin] as the compound, how does the clear zone [2] read?
The clear zone was 45 mm clear zone.

Which MIC [3] does the source give for `CN(C)c1cc(NC(=O)CNC(C)(C)C)c(O)c2c1C[C@H]1C[C@H]3[C@H](N(C)C)C(O)=C(C(N)=O)C(=O)[C@@]3(O)C(O)=C1C2=O` [Tigecycline, tigecycline] here?
The MIC was 4 µg/mL (≈ 6.83 µM).

And the AUC ([4]; human, in vivo, compartment models, read-out: Total-drug AUC72-96, ELF (Median))?
Its AUC is 2590 ng·h/mL.

What about the Kp ([4]; human, in vivo, read-out: Penetration Ratio: total-drug ELF AUC72-84 to free-drug plasma AUC72-84 (Median)) of the same compound?
The Kp was 1.87.

What about the “Free-drug AUC72-96, Plasma (Median)” value ([4]; compartment models) of the same compound?
The value was 1.38 mg·h/L.

And the MIC90 [5]?
Its MIC90 is 0.125 µg/mL (≈ 0.213 µM).

What about the MIC ([5]; isolate No. 1, MC 7323) of the same compound?
The MIC was 0.125 µg/mL (≈ 0.213 µM).

And the MIC ([5]; isolate No. 2, MC 7534)?
Its MIC is 0.03 µg/mL (≈ 0.0512 µM).

And the MIC ([5]; isolate No. 3, MC 7368)?
Its MIC is 0.03 µg/mL (≈ 0.0512 µM).

And the MIC ([5]; isolate No. 4, MC 7514)?
The MIC was 0.06 µg/mL (≈ 0.102 µM).

What about the MIC ([5]; isolate No. 5, MC 7584) of the same compound?
Its MIC is 0.06 µg/mL (≈ 0.102 µM).

What about the MIC ([5]; isolate No. 6, MC 7192) of the same compound?
The MIC was 0.03 µg/mL (≈ 0.0512 µM).

What about the MIC ([5]; isolate No. 7, MC 7466) of the same compound?
The MIC was 0.03 µg/mL (≈ 0.0512 µM).

And the MIC ([5]; isolate No. 8, MC 7533)?
Its MIC is 0.125 µg/mL (≈ 0.213 µM).

What about the MIC ([5]; isolate No. 9, MC 7579) of the same compound?
The MIC was 0.03 µg/mL (≈ 0.0512 µM).

And the MIC ([5]; isolate No. 10, MC 7614)?
Its MIC is 0.125 µg/mL (≈ 0.213 µM).

What about the MIC ([5]; isolate No. 11, MC 7414) of the same compound?
The MIC was 0.06 µg/mL (≈ 0.102 µM).

And the MIC ([5]; isolate No. 12, MC 7313)?
The MIC was 0.25 µg/mL (≈ 0.427 µM).

And the MIC ([5]; isolate No. 13, MC 7281)?
Its MIC is 0.5 µg/mL (≈ 0.854 µM).

And the MIC ([5]; isolate No. 14, MC 7328)?
Its MIC is 0.015 µg/mL (≈ 0.0256 µM).

And the MIC ([5]; isolate No. 15, MC 7294)?
Its MIC is 0.125 µg/mL (≈ 0.213 µM).

What about the MIC ([5]; isolate No. 16, MC 14-S-03) of the same compound?
The MIC was 0.5 µg/mL (≈ 0.854 µM).

What about the MIC ([5]; isolate No. 17, MC 14-S-04) of the same compound?
Its MIC is 0.06 µg/mL (≈ 0.102 µM).

What about the MIC ([5]; isolate No. 18, MC 14-S-05) of the same compound?
Its MIC is 0.125 µg/mL (≈ 0.213 µM).

What about the MIC ([5]; isolate No. 19, MC 14-S-06) of the same compound?
Its MIC is 0.03 µg/mL (≈ 0.0512 µM).

And the MIC ([5]; isolate No. 20, MC 14-S-07)?
The MIC was 0.06 µg/mL (≈ 0.102 µM).

What about the MIC ([5]; isolate No. 21, MC 35757) of the same compound?
Its MIC is 0.125 µg/mL (≈ 0.213 µM).

And the MIC ([5]; isolate No. 22, MC 7302)?
Its MIC is 0.25 µg/mL (≈ 0.427 µM).

And the “in vitro activity (in words)” value (M. abscessus)?
Its value is “good activity”.

And the “concentration for 1 log mycobacterial killing” value ([6]; after 7 days of exposure)?
Its value is 2.7 mg/L.

What about the “concentration for 2 log mycobacterial killing” value ([6]; after 7 days of exposure) of the same compound?
The value was 3.4 mg/L.

And the “concentration for stasis (concentration-effect curve)” value ([6]; after 7 days of exposure)?
Its value is 2.2 mg/L.

What about the “concentrations showing mycobacterial killing” value ([6]; time-kill, up to 7 days exposure) of the same compound?
The value was at least 4 mg/L.
